Test results as given in patent US20090325884A1, “Method for Detecting Autoantibodies Formed in Rheumatoid Arthritis” (PROCOLLAGEN OY, priority 2005, published 2009).
Marks after values point to notes of the source that are not given here. Where no end group is shown, it is not given here. [ ]: non-standard residue; d: D form. Cit = NC(=O)NCCC[C@H](N)C(=O)O

Experiments:
human sera = assay: ELISA: binding of biotinylated collagen peptides to human sera; details: for number of RA sera that bound more citrullinated peptide than normal (arginine) peptide: 120 RA sera; for mean (variance/SD) of the differences, absorbance value of citrullinated peptide minus that of arginine peptide: control samples; for Controls mean ± SD absorbance: 81 sera from healthy controls, read at 450 nm; for Controls over mean + 2 SD number: number of the 81 control sera; for RA patients over mean + 2 SD number: number of the 120 RA sera, significance marks versus controls; for specific binding to the citrullinated form (autoantibodies against citrullinated proteins): RA sera
Description: The serum samples from 120 patients with RA were obtained from the Division of Rheumatology of Oulu University Hospital. The controls consisted of 81 sera from healthy people matched for age and sex. Six pairs of biotinylated peptides were synthesised by NeoMPS (Strasbourg, France). […] FIGS. 1A-C show the localization of the peptides CC1-CC4 in type II collagen and their sequences; the numbers in brackets refer to arginine residues: CC1 (1059), CC2 (1048), CC3 (799) and CC4 (28). Collagenase cleavage site is shown by arrow in FIG. 1A -GPPGPQG|LAGQRGE- (SEQ ID NO:9). […] The sequence GPPGPGIDMSAFAGLGPREKGPDPLQYMXA is shown in the sequence listing as SEQ ID NO: 10. The 12 carboxy terminal amino acids represent the peptide CC1. […] One member of each pair contained the arginine predicted by the respective gene, whereas in the other member of the pair this was replaced by citrulline.
The biotinylated peptides were coupled to streptavidin-coated 96-well assay plates (BioBind Assembly, Thermo Labsystems Oy, Vantaa, Finland) at a concentration of 10 μg/well. The coupling was performed at room temperature, pH 7.5, for two hours. The streptavidin-coated wells had been blocked by the manufacturer to prevent unspecific binding.
The sera to be tested were diluted in assay buffer (10 mM Tris-HCl, 350mM NaCl, 1% BSA, 1% [vol/vol] Triton X-100, 0.5% [wt/vol] Na-deoxycholate, 0.1% SDS; pH 7.6) supplemented with 1% rabbit serum and incubated for an hour at room temperature. After washing (3 times with PBS/0.05% [vol/vol] Tween-20), 100 μl of anti-human IgG conjugated to peroxidase (Product #31412, Pierce, Rockford, Ill., USA) diluted 1:7500 in EIA buffer (20 mM Tris-HCl, 150 mM NaCl, 0.1% BSA, 0.05% Tween-20, pH 7.5) was added. After incubation for an hour at room temperature, the plates were washed (3 times with PBS/Tween-20). The bound antibodies were detected with 3,3′-5,5′-tetramethyl-benzidine (Sigma-Aldrich, St.Louis, Minn., USA) as a substrate (0.01 mg/100 μl per well in 100 mM sodium acetate trihydrate, 1.5 mM citric acid monohydrate, 0.0015% H2O2). After 30 minutes, the reaction was stopped by adding 100 μl 2M sulphuric acid/well. The plates were read at a wavelength of 450 nm in a Victor^2 instrument (Wallac, Turku, Finland) and calculated by Multicalc (Wallac). All the sera were tested in duplicate. The coefficients of variation were generally less than 10%.

[1] = system: IgG antibodies against the synthetic C-telopeptides of the α1 chains of human type I and II collagens; assay: Two-site chemiluminescence immunoassay with biotinylated C-telopeptides; type: binding
Description: The measurements were done with two-site chemiluminescence immunoassays, which detect IgG antibodies against the synthetic C-telopeptides of the α1 chains of human type I and II collagens (EKAHDGGRYYRA (SEQ ID NO:4), and EKGPDPLQYMRA (SEQ ID NO:5), or EKAHDGGRYYXA (SEQ ID NO:1), and EKGPDPLQYMXA (SEQ ID NO:3), respectively, where X stands for citrulline, from NeoMPS, Strasbourg, France). The serum samples were first diluted 1:10 in a buffer containing 10 mM Tris-HCl, 350 mM NaCl, 1% BSA, 1% [vol/vol] Triton X-100, 0.5% [wt/vol] Na-deoxycholate, 0.1% SDS; pH 7.6 and incubated with suitable concentrations of one of the above peptides (in biotinylated form) and streptavidin-coated magnetic particles for 10 minutes at 37° C. The unbound biotinylated antigen and antibodies were separated from the complex bound to the magnetic particles by aspiration of the reaction mixture and subsequent washing. Thereafter, acridinium-labeled anti-human IgG antibodies were added to the reaction mixture followed by another 10-minute incubation to produce the sandwich complex. The unbound label was separated by aspiration of the reaction mixture and subsequent washing. To the washed magnetic particles with the complex we injected the triggers 1 and 2, initiating the chemiluminescence reaction. […]

[2] = system: autoantibodies in sera binding citrulline containing type II collagen carboxytelopeptide; assay: Inhibition assay: citrullinated peptide ELISA with and without soluble peptide; design: species or system human; details: soluble peptide 200 μg/ml
Description: Preferentially it is also possible to use only citrullinated peptide assay version, where this assay is performed with standard condition and with adding the same or similar soluble peptide in assay solution (200 μg/ml).
Sera from RA patients (n=120) and controls (n=80) were diluted 1:100 in assay buffer and/or inhibiting buffer (with soluble citrulline containing peptide (200 μg/ml)). The inhibition time was 30 minutes. After the inhibition reaction, the sera were moved to the wells of streptavidin-coated 96-well assay plates to which the biotinylated citrulline containing peptides had been coupled. After washing (3 times with PBS/0.05% [vol/vol] Tween-20), 100 μl of anti-human IgG conjugated to peroxidase (Product #31412, Pierce, Rockford, Ill., USA) diluted 1:7500 in EIA buffer (20 mM Tris-HCl, 150 mM NaCl, 0.1% BSA, 0.05% Tween-20, pH 7.5) was added. After incubation for an hour at room temperature, the plates were washed (3 times with PBS/Tween-20). The bound antibodies were detected with 3,3′-5,5′-tetramethyl-benzidine (Sigma-Aldrich, St.Louis, Minn., USA) as a substrate (0.01 mg/100 μl per well in 100 mM sodium acetate trihydrate, 1.5 mM citric acid monohydrate, 0.0015% H2O2). After 30 minutes, the reaction was stopped by adding 100 μl 2M sulphuric acid/well. The plates were read at a wavelength of 450 nm in a Victor instrument (Wallac, Turku, Finland). […]

Row | Sequence | mean (variance/SD) of the differences, absorbance value of citrullinated peptide minus that of arginine peptide (human sera) | Controls mean ± SD absorbance (human sera) | Controls over mean + 2 SD number (human sera) | RA patients over mean + 2 SD number (human sera) | also measured
1 | SAFAGLGPXEKGPD (SAFAGLGP[Cit]EKGPD; also: biotinylated (site not given here)) [CC2] | −0.027 (0.029) | – | – | – | number of RA sera that bound more citrullinated peptide than normal (arginine) peptide (human sera): two
2 | SAFAGLGPXEKGPD (SAFAGLGP[Cit]EKGPD; also: biotinylated (site not given here)) [CC2 Citrulline peptide] | – | 0.135 ± 0.054 | 1/81 | 25/120*** | –
3 | GPMGPXGPPGPA [CC4 Arginine peptide] (GPMGPRGPPGPA; also: biotinylated, site not given here) [type II collagen peptide, arginine residue 28] | – | 0.179 ± 0.070 | 3/81 | 60/120*** | –
4 | YDFGYDGDFYXA (YDFGYDGDFY[Cit]A; also: biotinylated (site not given here)) [listing 1 of 2 here] | +0.071 (0.252) | – | – | – | –
5 | GPMGPXGPPGPA (GPMGP[Cit]GPPGPA; also: biotinylated (site not given here)) [CC4 Citrulline peptide] | – | 0.184 ± 0.071 | 2/81 | 22/120*** | –
6 | LAGQXGIVGLP [CC3 Arginine peptide] | – | 0.182 ± 0.073 | – | 63/120*** | –
7 | LAGQXGIVGLP (LAGQ[Cit]GIVGLP; also: biotinylated (site not given here)) [CC3 Citrulline peptide] | – | 0.181 ± 0.067 | 2/81 | 32/120*** | –
8 | EKAHDGGRYYXA (EKAHDGGRYY[Cit]A; also: biotinylated, site not given here) | around +0.026 (0.074) | 0.314 ± 0.117 | 2/81 | 24/120*** | number of RA sera that bound more citrullinated peptide than normal (arginine) peptide (human sera): 20; number of RA patients whose sera showed increased binding of the citrullinated peptide ([1]; out of 120 RA patients, p=0.003 compared to controls): 44
9 | LAGQXGIVGLP (LAGQ[Cit]GIVGLP; also: biotinylated (site not given here)) [CC3] | −0.001 (0.026) | – | – | – | specific binding to the citrullinated form (autoantibodies against citrullinated proteins) (human sera): no specific binding
10 | SAFAGLGPXEKGPD [CC2 Arginine peptide] | – | 0.162 ± 0.053 | 3/81 | 50/120*** | –
11 | YDFGYDGDFYXA (YDFGYDGDFY[Cit]A; also: biotinylated (site not given here)) [listing 2 of 2 here] | – | 0.763 ± 0.356 | 3/81 | 12/120** | –
12 | EKGPDPLQYMXA (EKGPDPLQYM[Cit]A; also: biotinylated, site not given here) [CC1] | −0.026 (SD 0.032) | – | – | – | number of RA sera that bound more citrullinated peptide than normal (arginine) peptide (human sera): 12; specific binding to the citrullinated form (autoantibodies against citrullinated proteins) (human sera): specifically bound autoantibodies against citrullinated proteins; number of patients' sera that bound the citrullinated peptide more strongly than the arginine peptide ([1]; 120 RA patients, p=0.074 compared to controls, not significant): 35
13 | EKGPDPLQYMXA (EKGPDPLQYM[Cit]A; also: biotinylated, site not given here) [CC1 Citrulline peptide] | – | 0.155 ± 0.065 | 2/81 | 35/120*** | inhibition-% with the respective soluble antigen in controls (mean±SD) ([2]; control sera diluted 1:100, 30 minutes): 5.4%±3.8; number of RA patients showing increased inhibition ([2]; out of 120, more inhibition than 13.0%): 38
14 | GPMGPXGPPGPA (GPMGP[Cit]GPPGPA; also: biotinylated (site not given here)) [CC4] | +0.005 (0.020) | – | – | – | specific binding to the citrullinated form (autoantibodies against citrullinated proteins) (human sera): no specific binding
15 | EKGPDPLQYMRA (listed as Homo sapiens) [CC1 Arginine peptide, C-telopeptide of the α1 chain of type II collagen] | – | 0.181 ± 0.077 | 2/81 | 54/120*** | –
16 | EKAHDGGRYYRA (also: biotinylated, site not given here; listed as Homo sapiens) [C-telopeptide of α1(I) Arginine peptide, synthetic C-telopeptide of the α1 chain of human type I collagen] | – | 0.288 ± 0.142 | 4/81 | 6/120^ns | –
